Key:
human polymerase gamma = target: T1, human polymerase gamma (Homo sapiens, UniProt P54098); assay: Homotemplate enzymatic assay, polymerase gamma; assay type: biochemical; conditions: four concentrations, homotemplate format
T1 construct: purchased Replizyme Ltd., Heslington, York, UK
T1 sequence (P54098 1-1239): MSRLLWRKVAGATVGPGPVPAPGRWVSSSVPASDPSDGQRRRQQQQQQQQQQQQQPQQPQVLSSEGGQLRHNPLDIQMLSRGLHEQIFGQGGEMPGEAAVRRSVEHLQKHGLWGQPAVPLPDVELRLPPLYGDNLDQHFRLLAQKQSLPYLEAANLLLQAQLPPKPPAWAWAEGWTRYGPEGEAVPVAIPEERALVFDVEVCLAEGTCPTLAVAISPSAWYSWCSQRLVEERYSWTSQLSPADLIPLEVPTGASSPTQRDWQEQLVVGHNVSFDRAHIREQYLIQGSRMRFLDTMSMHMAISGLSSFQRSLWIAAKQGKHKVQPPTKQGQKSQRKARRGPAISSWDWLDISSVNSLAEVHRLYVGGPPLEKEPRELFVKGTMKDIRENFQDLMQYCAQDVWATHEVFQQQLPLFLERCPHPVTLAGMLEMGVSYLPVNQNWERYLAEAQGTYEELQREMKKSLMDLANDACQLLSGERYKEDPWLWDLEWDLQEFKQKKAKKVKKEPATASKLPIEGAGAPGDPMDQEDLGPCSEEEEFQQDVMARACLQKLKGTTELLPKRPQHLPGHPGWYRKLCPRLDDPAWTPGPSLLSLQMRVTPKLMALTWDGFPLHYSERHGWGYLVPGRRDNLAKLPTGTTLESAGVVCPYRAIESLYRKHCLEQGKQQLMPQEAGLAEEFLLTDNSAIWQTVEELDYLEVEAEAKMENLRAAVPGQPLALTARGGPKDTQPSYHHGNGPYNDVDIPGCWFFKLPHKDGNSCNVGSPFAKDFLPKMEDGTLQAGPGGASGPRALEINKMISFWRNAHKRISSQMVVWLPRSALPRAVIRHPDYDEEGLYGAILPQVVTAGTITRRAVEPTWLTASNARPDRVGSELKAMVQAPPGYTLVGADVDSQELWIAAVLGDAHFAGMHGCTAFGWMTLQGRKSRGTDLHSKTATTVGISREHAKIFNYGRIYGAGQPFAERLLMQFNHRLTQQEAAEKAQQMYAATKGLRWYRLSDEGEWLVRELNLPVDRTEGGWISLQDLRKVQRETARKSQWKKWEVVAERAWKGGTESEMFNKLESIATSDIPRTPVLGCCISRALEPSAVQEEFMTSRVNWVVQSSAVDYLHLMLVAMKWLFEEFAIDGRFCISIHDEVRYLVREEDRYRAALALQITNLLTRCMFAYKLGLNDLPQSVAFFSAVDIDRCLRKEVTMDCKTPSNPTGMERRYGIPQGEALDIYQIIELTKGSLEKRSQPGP
Description: (§1) To test for selectivity, an enzymatic assay of activity in human polymerase alpha and human polymerase gamma was performed using a homotemplate assay format (Replizyme Ltd., Heslington, York, UK). The IC50 was measured by testing four different concentrations of a selected compound as compared to an untreated control.

human polymerase alpha = target: T2, human polymerase alpha (Homo sapiens, UniProt P09884); assay: Homotemplate enzymatic assay, polymerase alpha; assay type: biochemical; conditions: four concentrations, homotemplate format
T2 construct: purchased Replizyme Ltd (Heslington, York, UK)
T2 sequence (P09884 1-1462): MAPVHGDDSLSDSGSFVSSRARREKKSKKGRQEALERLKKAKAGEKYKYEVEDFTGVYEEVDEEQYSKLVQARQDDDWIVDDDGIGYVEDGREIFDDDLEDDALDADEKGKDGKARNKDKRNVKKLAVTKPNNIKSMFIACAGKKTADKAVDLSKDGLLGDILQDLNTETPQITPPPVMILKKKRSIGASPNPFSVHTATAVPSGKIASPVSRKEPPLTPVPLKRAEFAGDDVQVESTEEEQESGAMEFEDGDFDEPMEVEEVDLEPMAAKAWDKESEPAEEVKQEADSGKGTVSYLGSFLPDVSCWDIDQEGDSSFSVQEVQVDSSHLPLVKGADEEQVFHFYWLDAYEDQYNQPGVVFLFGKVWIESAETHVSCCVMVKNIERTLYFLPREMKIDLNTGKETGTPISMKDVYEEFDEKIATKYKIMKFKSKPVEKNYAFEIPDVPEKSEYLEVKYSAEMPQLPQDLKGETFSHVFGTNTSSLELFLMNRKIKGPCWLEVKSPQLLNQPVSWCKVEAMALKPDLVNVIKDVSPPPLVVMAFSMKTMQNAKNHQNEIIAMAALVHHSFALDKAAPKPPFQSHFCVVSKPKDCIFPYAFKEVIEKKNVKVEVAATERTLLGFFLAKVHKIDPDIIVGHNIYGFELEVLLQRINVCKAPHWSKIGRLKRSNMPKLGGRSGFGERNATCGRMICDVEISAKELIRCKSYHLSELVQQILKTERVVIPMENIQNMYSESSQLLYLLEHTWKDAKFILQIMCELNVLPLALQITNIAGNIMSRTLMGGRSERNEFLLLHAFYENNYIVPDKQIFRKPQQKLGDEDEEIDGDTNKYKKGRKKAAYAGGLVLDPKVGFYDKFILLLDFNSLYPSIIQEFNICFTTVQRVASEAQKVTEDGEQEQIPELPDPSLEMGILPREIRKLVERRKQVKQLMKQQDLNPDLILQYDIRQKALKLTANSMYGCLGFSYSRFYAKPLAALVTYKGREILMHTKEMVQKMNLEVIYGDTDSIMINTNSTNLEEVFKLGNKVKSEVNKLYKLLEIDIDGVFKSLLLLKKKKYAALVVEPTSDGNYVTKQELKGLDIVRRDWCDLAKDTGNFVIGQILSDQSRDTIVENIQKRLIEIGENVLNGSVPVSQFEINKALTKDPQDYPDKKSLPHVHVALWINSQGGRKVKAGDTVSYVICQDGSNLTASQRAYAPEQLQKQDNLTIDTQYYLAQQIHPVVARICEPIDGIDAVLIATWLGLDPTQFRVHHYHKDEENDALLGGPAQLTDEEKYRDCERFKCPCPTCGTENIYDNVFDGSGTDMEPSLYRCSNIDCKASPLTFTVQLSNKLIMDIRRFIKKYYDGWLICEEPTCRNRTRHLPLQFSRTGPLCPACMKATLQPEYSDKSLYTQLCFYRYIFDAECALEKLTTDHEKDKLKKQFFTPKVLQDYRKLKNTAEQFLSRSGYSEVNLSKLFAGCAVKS
Description: as §1

786-0 = assay: NCI In Vitro Cell Line Screening (SRB); assay type: cell-based, human; conditions: 786-0, Renal Cancer, 48 h; for GI50 / CC50: Homo sapiens; for CC50: read-out: LC50 (the source's name)
BT-549 = assay: NCI In Vitro Cell Line Screening (SRB); assay type: cell-based, human; conditions: BT-549, Breast Cancer, 48 h; for GI50 / CC50: Homo sapiens; for CC50: read-out: LC50 (the source's name)
HL-60(TB) = assay: NCI In Vitro Cell Line Screening (SRB); assay type: cell-based, human; conditions: Leukemia, 48 h; for GI50: Homo sapiens

IC50 (human polymerase gamma) [µM]	IC50 (human polymerase alpha) [µM]	SMILES	TGI (786-0) [µM]	GI50 (786-0) [µM]	CC50 (786-0) [µM]	TGI (BT-549) [µM]	GI50 (BT-549) [µM]	CC50 (BT-549) [µM]	GI50 (HL-60(TB)) [µM]	TGI (HL-60(TB)) [µM]
27	< 4	Cc1ccc(NC(=O)[C@H](CCCCN)NC(=O)Nc2ccc(OCc3ccccc3)cc2)cc1 [Compound 2, (S)-6-AMINO-2-[3-(4-BENZYLOXY-PHENYL)-UREIDO]-HEXANOIC ACID P-TOLYLAMIDE]								
32	~4	COC(=O)c1ccc(COc2ccc(NC(=O)N[C@@H](CCCCN)C(=O)Nc3ccc(C)cc3)cc2)cc1 [Compound 199, (S)-4-{4-[3-(5-AMINO-1-P-TOLYLCARBAMOYL-PENTYL)-UREIDO]-PHENOXYMETHYL}-BENZOIC ACID METHYL ESTER]								

Continued, molecule first:

SMILES	IC50 (human polymerase gamma) [µM]	IC50 (human polymerase alpha) [µM]	TGI (786-0) [µM]	GI50 (786-0) [µM]	CC50 (786-0) [µM]	TGI (BT-549) [µM]	GI50 (BT-549) [µM]	CC50 (BT-549) [µM]	GI50 (HL-60(TB)) [µM]	TGI (HL-60(TB)) [µM]
CC(C)(C)c1ccc(NC(=O)[C@H](CCCCN)NC(=O)OCC2c3ccccc3-c3ccccc32)cc1 [Compound 105, (S)-[5-AMINO-1-(4-TERT-BUTYL-PHENYLCARBAMOYL)-PENTYL]-CARBAMIC ACID 9H-FLUOREN-9-YLMETHYL ESTER]			2.66	1.33	5.3	50.6	25.3	> 100	1.54	3.47
Cc1ccc(NC(=O)[C@@H](CCCCN)NC(=O)Nc2ccc3c(c2)Cc2ccccc2-3)cc1 [Compound 173, (R)-6-AMINO-2-[3-(9H-FLUOREN-2-YL)-UREIDO]-HEXANOIC ACID P-TOLYLAMIDE]	16	< 4	11.1	3.42	91.1	26.9	11.7	61.6	1.77	3.79
Cc1cc2cc(NC(=O)[C@H](CCCNC(=O)CN)NC(=O)Nc3ccc4c(c3)Cc3ccccc3-4)ccc2[nH]1 [Compound 297, (S)-5-(2-AMINO-ACETYLAMINO)-2-[3-(9H-FLUOREN-2-YL)-UREIDO]-PENTANOIC ACID (2-METHYL-1H-INDOL-5-YL)-AMIDE]	13	< 4								

Reference: patent publication US20080171783A1, “COMPOSITIONS AND METHODS FOR TREATING HYPERPROLIFERATIVE DISEASE” (Migenix Inc., priority 2006, published 2008)
